Residues, ends and D or L forms follow the SMILES beside them. *: point of attachment. Boc = CC(C)(C)OC(=O)*
melting point [°C] | Compound
286 to 288 | Nc1ccc(C(=O)N2CC(=O)Nc3ccccc32)cc1
111 to 113 | O=C(O)CC=Cc1ccc(F)cc1
190 to 192 | NC(=O)c1cc(-c2cccs2)on1
251 to 253 | O=c1[nH]cnc2c1CCNC2
101 to 103 | CC(C)(C)C(=O)c1ccsc1N
204 to 206 | Cc1ccc(F)c2c1C(=O)C(=O)N2
59 to 61 | Nc1cnn(-c2ccccc2F)c1
93 to 95 | CC(=O)N1CCCc2ccc(S(=O)(=O)Cl)cc21
59 to 61 | COC(=O)c1ccc(Br)cc1F
177 to 179 | COCCOC(=O)c1c(C)[nH]c(C(=O)O)c1C
168 to 170 | Clc1nc(C=Cc2ccc(Br)cc2)nc2sc3c(c12)CCCC3
93 to 95 | CCOC(=O)c1c(-c2ccc(C)s2)csc1N
101 to 103 | CN1C(=O)CCc2cc(N)ccc21
107 to 109 | CC(C(=O)c1ccccc1)N1C(=O)CCC1=O (stereo not given)
213 to 215 | Nc1cc2c(c(C(=O)O)c1)OCCO2
115 to 117 | CNC(=O)c1cc(Oc2ccccc2N)ccn1
242 to 244 | N=C(N)Nc1nc2ccccc2[nH]1
250 to 252 | CCN(CC)S(=O)(=O)c1c[nH]c(C(=O)O)c1
129 to 131 | CS(=O)(=O)c1ccc(-c2nc(CCl)co2)cc1
54 to 56 | Cc1cc(Cl)ccc1S(=O)(=O)Cl
119 to 121 | CC(C)(C)OC(=O)NCC(=O)NCC(=O)O (Boc-Gly-Gly-OH)
245 to 246 | ON=C(C(=NO)c1ccccc1)c1ccccc1
163 to 165 | Cn1c(=O)n(C)c2cc(Br)ccc21

melting point [°C] | Compound
179 to 181 | O=C(O)C1(c2ccc(Br)cc2)CCCCC1
132 to 134 | O=[N+]([O-])c1cc(NCC2CC2)ccc1S(=O)(=O)NCC1CC1
49 to 51 | CCCOc1ccc(N)cc1Cl
250 to 252 | Cc1ccc(-c2nnc(-c3ccc(C(=O)O)cc3)o2)cc1
84 to 86 | CC(C)COc1ncccc1C(=O)O
230 to 232 | Brc1nn2cc(-c3cccnc3)nc2s1
158 to 160 | NC(=O)C1CNCCO1 (stereo not given)
119 to 121 | Cn1nc(C(F)(F)F)c(C(=O)O)c1C(F)(F)Cl
255 to 257 | CN1C(=O)C(C(N)=O)=C(N)C12CCCC2
145 to 147 | CCCOC(=O)c1cc(-c2cncnc2)ccc1N
167 to 169 | O=C(Nc1cccc(NC(=O)c2ccco2)c1)OCC(F)(F)F
189 to 191 | Cc1nn(-c2ccccc2)c2nc(Cl)c(C=O)cc12
143 to 145 | O=Cc1ccc(OC(=O)c2cccc([N+](=O)[O-])c2)cc1
151 to 153 | Cc1ccc(N)cc1S(N)(=O)=O
129 to 131 | Cc1ccc(C#N)c(=O)n1C
184 to 186 | Cc1cc2ccccc2n1CC(=O)O
149 to 151 | NS(=O)(=O)c1ccccc1Cn1ccnc1
127 to 129 | CS(=O)(=O)Cc1ccc(S(=O)(=O)Cl)cc1
168 to 170 | O=C(O)C1CCCCC1c1nc2ccccc2s1 (stereo not given)
142 to 144 | CCCOc1ccc(C(N)=S)cc1
110 to 112 | CCN(CC)S(=O)(=O)c1cccc(C(=O)NC(C(=O)O)C(C)C)c1 (stereo not given)
179 to 181 | O=C(O)CCCN1C(=O)CCc2ccccc21
115 to 117 | O=[N+]([O-])c1cccc(-c2nnc(CCl)o2)c1

melting point [°C] | Compound
89 to 91 | CC(Cl)C(=O)NC(C)c1ccccc1 (stereo not given)
118 to 120 | CCOc1cccc(C(N)=S)c1
91 to 93 | Cc1cccc(NCCC(N)=O)c1
53 to 55 | [N-]=[N+]=NC(C(=O)NC1CC1)c1ccc(F)cc1 (stereo not given)
212 to 214 | CC(=O)Nc1ccc(S(=O)(=O)N2CCC(N)CC2)cc1
189 to 191 | Cc1n[nH]c2ncc([N+](=O)[O-])cc12
118 to 120 | COc1ccccc1C(=O)NC(=O)CCl
128 to 130 | Cc1cc(NC(=O)CCl)n(-c2ccc(F)cc2)n1
219 to 221 | COc1c([N+](=O)[O-])ccc2[nH]ncc12
79 to 81 | Nc1cnncc1Cl
160 to 162 | COc1ccc(C(=O)NC(=O)CCl)cc1
83 to 85 | COc1ccc(C(=O)C(C)Br)cc1OC (stereo not given)
314 to 316 | CC(=O)Nc1ccc(C2NC(=O)NC2=O)cc1 (stereo not given)
116 to 118 | CCOC(=O)C(=O)c1c(-c2ccc(C)cc2)nc2ccccn12
353 to 355 | Cc1sc2nc(N)[nH]c(=O)c2c1C
134 to 136 | Cc1nn(-c2ccc(F)cc2)c(Cl)c1CO
66 to 68 | O=C(O)CCCSc1ccccc1
99 to 101 | NC(=NO)c1cccc(NC(=O)CN2CCOCC2)c1
142 to 144 | COc1cc(S(N)(=O)=O)ccc1N
67 to 70 | C=CCOc1ccc(C(=O)c2ccccc2)c(O)c1
367 to 369 | Cc1cc(=O)n2nc(N)[nH]c2n1
127 to 129 | CCOc1ccccc1C(=O)NC(C(=O)O)C(C)C (stereo not given)
122 to 124 | CC(C)(C)OC(=O)N1CCc2c(N)cccc2C1

melting point [°C] | Compound
89 to 93 | CCOC(=O)c1ccc(-n2ccnc2)c(N)c1
144 to 146 | CCC1CCc2[nH]c(=O)sc2C1 (stereo not given)
131 to 133 | Nc1ccc(-n2cncn2)c(Cl)c1
173 to 175 | NS(=O)(=O)CCCN1C(=O)c2ccccc2C1=O
60 to 62 | Cc1nc2n(n1)CC(N)CC2 (stereo not given)
38 to 42 | CCN(Cc1ccccc1)c1ccc(C=O)cc1
135 to 137 | CCOC(=O)C1=NN(CC)C(=O)C1
231 to 233 | O=C(O)C1CCn2ccnc2C1 (stereo not given)
158 to 160 | Nc1nc(CN2CCN(c3ncccn3)CC2)cs1
79 to 81 | COc1ccccc1C(C#N)NC(=O)OC(C)(C)C (stereo not given)
154 to 156 | Cc1ccc(C(=O)Nc2ccccc2N)cc1
80 to 82 | COC(=O)c1cc(C)cc([N+](=O)[O-])c1
173 to 175 | NC(=S)Cc1nc2ccccc2s1
117 to 119 | COC(=O)c1ccc(N)c(OCC(F)(F)F)c1
119 to 121 | Cc1cccc(Cl)c1S(N)(=O)=O
188 to 192 | NN1C(=O)NC(c2ccccc2)(c2ccccc2)C1=O
127 to 129 | COc1ccccc1NC(=O)c1ccccc1NC(=O)CCC(=O)O
65 to 67 | CN(C)C(=S)Oc1cccc(C=O)c1
197 to 199 | Cc1nc(-c2ccc(I)cc2)n[nH]1
116 to 118 | Cn1nc(-c2ccccc2)nc1CC#N
257 to 259 | Nc1cc(Cl)c(S(N)(=O)=O)cc1[N+](=O)[O-]
95 to 97 | CC(Oc1cccc(F)c1)C(=O)O (stereo not given)
199 to 201 | O=C(O)c1ccc2c(c1Cl)C(=O)c1ccccc1C2=O

melting point [°C] | Compound
48 to 50 | CC(=O)c1cncc(F)c1
68 to 70 | COc1c(Br)cc(Cl)cc1S(=O)(=O)Cl
59 to 61 | Cn1cc(C#N)cn1
117 to 119 | Cc1ccc(-c2csc(CC(N)=S)n2)cc1
146 to 148 | Cc1ccc(C(=O)N2CCCC(C(=O)O)C2)cc1 (stereo not given)
94 to 96 | CC(C)(C)OC(=O)NCCCC(N)=S
83 to 85 | O=C(CN1CCNCC1)N1CCCCC1
268 to 270 | CN(C)S(=O)(=O)c1ccc(/C=C/C(=O)O)cc1
117 to 119 | O=C(CCl)NC1CCN(C(=O)CCc2ccccc2)CC1
125 to 127 | Cc1ccc(S(=O)(=O)N2CCC(=O)CC2)cc1
111 to 113 | CC(C)Nc1ccc(S(C)(=O)=O)cc1
169 to 171 | O=C(O)c1nnn(-c2ccc(Br)cc2)c1C(F)(F)F
89 to 91 | COC(=O)Nc1ccc(N)cc1
249 to 251 | CNc1ccc(C(=O)O)cn1
265 to 267 | Oc1ccc(-c2ncc[nH]2)cc1
182 to 184 | Clc1ccnc2cc(Br)cnc12
214 to 216 | O=C(O)c1cccc(S(=O)(=O)Cc2ccccc2)c1
231 to 233 | O=S(=O)(c1cccc(-c2nnc(S)n2Cc2ccc(F)cc2)c1)N1CCOCC1
165 to 167 | COc1cc(C(C)=O)ccc1OCC(=O)O
279 to 281 | CSc1nc(N)cc(O)n1
118 to 120 | CCOC(=O)c1c(N)sc(C(=O)OCCOC)c1C
209 to 211 | O=Cc1c[nH]c2cc(Cl)ccc12
141 to 143 | Cc1cc(C(=O)CCl)c(C)n1NC(=O)c1ccccc1

melting point [°C] | Compound
45 to 47 | ClCCc1nnnn1-c1ccccc1
132 to 134 | O=Cc1ccc(Cl)c2cccnc12
244 to 246 | Cc1[nH]c(C(=O)O)c(C)c1C(=O)O
76 to 78 | CCOC(=O)C(=O)CC(=O)c1cc(Cl)ccc1Cl
205 to 207 | COc1ccc(C)cc1-c1csc(N)n1
160 to 162 | N#CCC(=O)Nc1ccccn1
219 to 221 | CSc1ccc(-c2csc(N)n2)cc1
73 to 75 | c1ccc(COc2ccc3ncccc3c2)cc1
131 to 133 | NNc1ccc(Cl)nc1
149 to 151 | NC(=O)C1CCCCN1C(=O)CCl (stereo not given)
140 to 147 | O=C(O)Cc1csc(-c2ccccn2)n1
149 to 151 | CN(C)S(=O)(=O)c1cccc(C(=O)NN)c1
96 to 98 | CNc1ccccc1C(=O)NCCc1ccc(OC)cc1
106 to 108 | CC(C)C(=O)CNC(=O)c1ccc([N+](=O)[O-])cc1
319 to 321 | NC(=O)Cn1c(S)nnc1-c1cccs1
69 to 71 | CC(C)(C)c1cccc2c1OCC2=O
142 to 144 | CNC(=O)c1cc([N+](=O)[O-])ccc1F
81 to 83 | COc1ccc(CNc2cnn(C)c2)c(OC)c1
103 to 105 | COc1ccc(OC)c(S(=O)(=O)N2CCNCC2)c1
110 to 112 | CC(=O)NC1CCCN(C(=O)CCl)C1 (stereo not given)

Compound | melting point [°C]
Cc1ccccc1-n1c(Cl)nc2ccccc2c1=O | 298 to 300
CC(Br)C(=O)c1ccc(Cl)cc1 (stereo not given) | 68 to 70
CC(NC(=O)CCl)C(=O)O (stereo not given) | 125 to 127
[N-]=[N+]=Nc1ccc(Cl)cc1Cl | 52 to 54
C1CCc2nnc(CN3CCNCC3)n2CC1 | 158 to 162

— a melting point compilation (Tetko et al.)
